target: T1, human GPR84 receptor (Homo sapiens, UniProt Q9NQS5); experiment: Gαi biosensor BRET assay in HEK293 cells (antagonism of ZQ-16); assay type: cell-based; conditions: HEK293, single concentration 2 μM (designated A)
T1 construct: host or cells: HEK293, transient transfection
How it was run: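 Antagonist mode: test compound 5 min at 37° C, followed by ZQ-16 agonist (200 nmol/L, 5 min, room temperature), in HEK293 cells transfected with GPR84 plus Rluc8-tagged Gαi2, GFP10-Gγ2 and Gβ1. Readout as GFP10/Rluc8 emission ratio after 5 μmol/L coelenterazine 400A, net of Rluc8-only and vehicle signal.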

T1 sequence (Q9NQS5 whole entry): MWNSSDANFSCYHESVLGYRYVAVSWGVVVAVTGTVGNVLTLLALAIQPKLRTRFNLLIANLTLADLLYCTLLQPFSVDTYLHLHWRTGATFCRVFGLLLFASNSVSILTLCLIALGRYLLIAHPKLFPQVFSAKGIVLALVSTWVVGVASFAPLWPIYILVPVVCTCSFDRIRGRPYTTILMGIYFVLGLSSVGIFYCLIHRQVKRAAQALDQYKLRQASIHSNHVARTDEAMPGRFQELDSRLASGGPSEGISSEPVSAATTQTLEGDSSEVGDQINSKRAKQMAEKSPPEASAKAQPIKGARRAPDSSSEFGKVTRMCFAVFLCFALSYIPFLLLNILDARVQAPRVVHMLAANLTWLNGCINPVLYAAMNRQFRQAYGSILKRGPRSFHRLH

Q: With Cc1ccc(C#CC2CC2)cc1C1(c2cn(CC3OCC(C)(C)CO3)nn2)OCCO1 [Compound I-721] as the compound, how does the inhibition at 2 µM read?
A: > 75%

Q: Cc1ccc(C#CC2CC2)cc1C(CC1CC1)c1cn(CC2OCC(C)(C)CO2)nn1 (stereo not drawn) [Compound I-714] was tested. Which inhibition at 2 µM did it give?
A: > 75%

Q: Cc1cc(NC(=O)CC2CC2)ccc1-c1cn(CC2CCCCO2)nn1 (stereo not drawn) [Compound I-358] was tested. Which inhibition at 2 µM did it give?
A: ≤ 25%

Q: How did the inhibition at 2 µM turn out when CC(=O)N(c1cn(CC2OCC(C)(C)CO2)nn1)c1cc(C#CC2CC2)ccc1C [Compound I-792, N-(5-(cyclopropylethynyl)-2-methylphenyl)-N-(1-((5,5-dimethyl-1,3-dioxan-2-yl)methyl)-1H-1,2,3-triazol-4-yl)acetamide] was run?
A: > 75%

Q: Cc1ccc(C#CC2CC2)cc1Cc1cn(CC2COc3ncccc3O2)nn1 (stereo not drawn) [Compound I-552] was tested. Which inhibition at 2 µM did it give?
A: 25 to 50%

Q: Cc1ccc(C#CC2CC2)cc1C(CC(F)(F)F)c1cn(CC2OCC(C)(C)CO2)nn1 (stereo not drawn) [Compound I-681] was tested. Which inhibition at 2 µM did it give?
A: > 75%

Q: How did the inhibition at 2 µM turn out when Cc1cc(C#CCN2CC(C)(C)C2)ccc1-c1cn(CC2OCC(F)(F)CO2)nn1 [Compound I-700] was run?
A: 50 to 75%

Q: How did the inhibition at 2 µM turn out when CCc1ccc(C#CC2CC2)cc1Cc1cn(CC2CCCCO2)nn1 (stereo not drawn) [Compound I-475] was run?
A: 25 to 50%

Q: For CCc1c(C#CC2CC2)cccc1Cc1cn(CC2CCCCO2)nn1 (stereo not drawn) [Compound I-476], which inhibition at 2 µM is on record?
A: ≤ 25%

same assay, conditions: HEK293, single concentration 10 μM (designated F)

Q: How did the inhibition at 10 µM turn out when COc1cc(N2CC(C)(C)C2)ccc1-c1cn(CC2CCCCO2)nn1 (stereo not drawn) [Compound I-279] was run?
A: > 75%

Q: Cc1cc(N2CCC(O)C2)ccc1-c1cn(CC2CCCCO2)nn1 (stereo not drawn) [Compound I-436] was tested. Which inhibition at 10 µM did it give?
A: ≤ 25%

Q: For CN(C)c1cc(N2CC(C)(CO)C2)c(F)cc1-c1cn(CC2OCC3(CCC3)O2)nn1 (stereo not drawn) [Compound I-786], which inhibition at 10 µM is on record?
A: > 75%

Q: Which inhibition at 10 µM does the source give for CNC1CCN(c2ccc(-c3cn(CC4CCCCO4)nn3)c(C)c2)CC1 (stereo not drawn) [Compound I-128] here?
A: ≤ 25%

Q: How did the inhibition at 10 µM turn out when Cc1cc(OC2CN3CCC2CC3)ccc1-c1cn(CC2CCCCO2)nn1 (stereo not drawn) [Compound I-465] was run?
A: ≤ 25%

Q: Which inhibition at 10 µM does the source give for CN(C)c1cc(C#CC(C)(C)O)ccc1-c1cn(CC2OCC(C)(C)CO2)nn1 [Compound I-719] here?
A: > 75%

Q: Cc1cc(C#CC2CC2)ccc1-c1cn(CC2CN(C)C(=O)O2)nn1 (stereo not drawn) [Compound I-493] was tested. Which inhibition at 10 µM did it give?
A: ≤ 25%

Q: With Cc1ccc(N2CC(C)(C)C2)cc1-c1cn(CC2CCCCO2)nn1 (stereo not drawn) [Compound I-213] as the compound, how does the inhibition at 10 µM read?
A: ≤ 25%

Q: With O=c1oc(CC2CCCCO2)nn1Cc1cccc(C#CC2CC2)c1 (stereo not drawn) [Compound I-18, 3-(3-(cyclopropylethynyl)benzyl)-5-((tetrahydro-2H-pyran-2-yl)methyl)-1,3,4-oxadiazol-2(3H)-one] as the compound, how does the inhibition at 10 µM read?
A: 50 to 75%

Q: For Cc1cc(C#CCO)cnc1-c1cn(C[C@H]2CCCCO2)nn1 [Compound I-272], which inhibition at 10 µM is on record?
A: 50 to 75%

Q: How did the inhibition at 10 µM turn out when CCn1c(C#CC2CC2)cnc1-c1cn(CC2CCCCO2)nn1 (stereo not drawn) [Compound I-285] was run?
A: > 75%

Q: For Cc1cc(N2CC(C)(CO)C2)ccc1-c1cn(CC2OCC(C)(C)CO2)nn1 [Compound I-614], which inhibition at 10 µM is on record?
A: 50 to 75%

Q: CC1(C)COC(Cn2cc(-c3ccc(C#CCN4CC(C)(C)C4)cc3OC3CC3)nn2)OC1 [Compound I-788] was tested. Which inhibition at 10 µM did it give?
A: > 75%

Q: With CCc1cc(C#CCN2CCC(F)(F)CC2)cnc1-c1cn(CC2CCCCO2)nn1 (stereo not drawn) [Compound I-275] as the compound, how does the inhibition at 10 µM read?
A: > 75%

Q: For CCc1cc(C#CCN2CC(C)(CO)C2)cnc1-c1cn(CC2OCC(C)(C)CO2)nn1 [Compound I-789], which inhibition at 10 µM is on record?
A: 50 to 75%

Q: Which inhibition at 10 µM does the source give for Cn1ccc2c(C#CC3CC3)ccc(-c3cn(CC4CCCCO4)nn3)c21 (stereo not drawn) [Compound I-230] here?
A: ≤ 25%

Q: Cc1cc(C#CCN(C)CC2CC2)cnc1-c1cn(CC2CCCCO2)nn1 (stereo not drawn) [Compound I-251] was tested. Which inhibition at 10 µM did it give?
A: > 75%

Q: With Cc1cc(C#CC2CC2)ccc1-c1nn(CC2CCCCO2)c(=O)o1 (stereo not drawn) [Compound I-15] as the compound, how does the inhibition at 10 µM read?
A: ≤ 25%

Q: For C(#CC1CC1)c1ccc(Cc2cn(CC3CCCCO3)nn2)cc1 (stereo not drawn) [Compound I-298], which inhibition at 10 µM is on record?
A: 25 to 50%

Q: Cc1cc(N2CCN(Cc3ccccn3)CC2)ccc1-c1cncn1CC1OCC(C)(C)CO1 [Compound I-683] was tested. Which inhibition at 10 µM did it give?
A: ≤ 25%

Q: Which inhibition at 10 µM does the source give for CC(C)c1cc(N2CC(C)(C)C2)cnc1-c1cn(CC2CCCCO2)nn1 (stereo not drawn) [Compound I-461] here?
A: > 75%

Q: With Cc1cc(C#CCN2CC(C)(C)C2)cnc1-c1cn(CC2Oc3ccccc3O2)nn1 [Compound I-627] as the compound, how does the inhibition at 10 µM read?
A: > 75%

Q: Cc1cc(C#CC2CC2)ccc1-n1nc(OC[C@H]2COCCO2)oc1=O [Compound I-13] was tested. Which inhibition at 10 µM did it give?
A: 25 to 50%

Q: For CC(=O)NCC1(C)CN(c2ccc(-c3cn(CC4CCCCO4)nn3)c(C)c2)C1 (stereo not drawn) [Compound I-447], which inhibition at 10 µM is on record?
A: 25 to 50%

Q: With Cc1cc(C#CCN2CCCCC2=O)ccc1-c1cn(CC2CCCCO2)nn1 (stereo not drawn) [Compound I-205] as the compound, how does the inhibition at 10 µM read?
A: 25 to 50%

Q: How did the inhibition at 10 µM turn out when Cc1cc(N2CCN(c3ccccn3)CC2)ccc1-c1cn(CC2CCCCO2)nn1 (stereo not drawn) [Compound I-533] was run?
A: ≤ 25%

Q: CN(C)c1cc(N2CC(C)(CO)C2)ccc1-c1cn(CC2OCC(F)(F)CO2)nn1 [Compound I-729] was tested. Which inhibition at 10 µM did it give?
A: > 75%

Q: How did the inhibition at 10 µM turn out when Cc1cc(C#CC2CCC2)ccc1-c1cn(CC2CCCCO2)nn1 (stereo not drawn) [Compound I-540] was run?
A: > 75%

Q: CC1(C)COC(Cn2cc(-c3ncc(C#CC4CC4)cc3CC(F)(F)F)nn2)OC1 [Compound I-750] was tested. Which inhibition at 10 µM did it give?
A: > 75%

Q: How did the inhibition at 10 µM turn out when Cc1cc(C#CC2CC2)ccc1Cc1cn(CC2CCCCO2)nn1 (stereo not drawn) [Compound I-300] was run?
A: 25 to 50%

Q: With COc1cc(-c2cn(C[C@H]3CCCCO3)nn2)c(C)cc1N1CC(C)(C)C1 [Compound I-422] as the compound, how does the inhibition at 10 µM read?
A: ≤ 25%

Q: Which inhibition at 10 µM does the source give for Cc1cc(CO)ccc1-c1cn(CC2CCCCO2)nn1 (stereo not drawn) [Compound I-468] here?
A: 25 to 50%

Q: For Cc1cc(N2CCN(Cc3ccccn3)CC2)ccc1-c1cncn1C[C@H]1CCCCO1 [Compound I-672], which inhibition at 10 µM is on record?
A: ≤ 25%

Q: Cc1cc(C#CC2CC(F)(F)C2)ccc1-c1cn(CC2OCC(C)(C)CO2)nn1 [Compound I-662] was tested. Which inhibition at 10 µM did it give?
A: > 75%

same assay, conditions: HEK293, single concentration 12.5 μM (designated G)

Q: Which inhibition at 12.5 µM does the source give for Cc1ccc(-c2ccc(-c3cn(C[C@H]4COCCO4)nn3)cc2)cn1 [Compound I-25] here?
A: ≤ 25%

Q: Which inhibition at 12.5 µM does the source give for Cc1cc(C#CC2CC2)ccc1-c1nnn(C[C@H]2CCCCO2)c1C [Compound I-45] here?
A: 25 to 50%

same assay, conditions: HEK293, single concentration 25 μM (designated I)

Q: Cc1c(-c2ccc(OCc3ccccn3)cc2)nnn1CC1CCCCO1 (stereo not drawn) [Compound I-50] was tested. Which inhibition at 25 µM did it give?
A: 25 to 50%

Q: Cc1nn(CC2CCCCO2)cc1-c1ccc(C#CC2CC2)cc1 (stereo not drawn) [Compound I-319] was tested. Which inhibition at 25 µM did it give?
A: ≤ 25%

Q: Which inhibition at 25 µM does the source give for C(#CC1CC1)c1ccc(-c2nnnn2CC2CCCCO2)cc1 (stereo not drawn) [Compound I-346] here?
A: 25 to 50%

Q: Which inhibition at 25 µM does the source give for C(#CC1CC1)c1cccc(-c2nnn(CC3COCCO3)n2)c1 (stereo not drawn) [Compound I-6] here?
A: ≤ 25%

Q: How did the inhibition at 25 µM turn out when CN(C)CC#Cc1ccc(-c2cn(CC3CCCCO3)nn2)cc1 (stereo not drawn) [Compound I-47] was run?
A: ≤ 25%

Q: C(#CC1CC1)c1ccc(-c2cn(C[C@H]3CCCCO3)nn2)nc1 [Compound I-28] was tested. Which inhibition at 25 µM did it give?
A: 25 to 50%

Q: With Cc1c(-c2ccc(C#CC3CC3)cc2)ncn1CC1CCCCO1 (stereo not drawn) [Compound I-334] as the compound, how does the inhibition at 25 µM read?
A: > 75%

Q: Which inhibition at 25 µM does the source give for C(#CC1CC1)c1ccc(-c2ccn(CC3CCCCO3)n2)cc1 (stereo not drawn) [Compound I-321] here?
A: 25 to 50%

Q: With Cc1ccc(-c2cccc(-c3cn(C[C@H]4CCCCO4)nn3)c2)cn1 [Compound I-33] as the compound, how does the inhibition at 25 µM read?
A: 25 to 50%

Q: C(#CC1CC1)c1ccc(-c2cn(CC3CCOCC3)nn2)cc1 [Compound I-40] was tested. Which inhibition at 25 µM did it give?
A: 25 to 50%

same assay, conditions: HEK293 cells, antagonism of 200 nmol/L ZQ-16

Q: How did the IC50 turn out when Cc1ccc(C#CC2CC2)cc1C1(c2cn(CC3OCC(C)(C)CO3)nn2)OCCO1 [Compound I-721] was run?
A: 0.3 to 1 µM

Q: Cc1ccc(C#CC2CC2)cc1C(CC1CC1)c1cn(CC2OCC(C)(C)CO2)nn1 (stereo not drawn) [Compound I-714] was tested. Which IC50 did it give?
A: 1 to 3 µM

Q: For CN(C)c1cc(N2CC(C)(CO)C2)c(F)cc1-c1cn(CC2OCC3(CCC3)O2)nn1 (stereo not drawn) [Compound I-786], which IC50 is on record?
A: 0.3 to 1 µM

Q: With CN(C)c1cc(C#CC(C)(C)O)ccc1-c1cn(CC2OCC(C)(C)CO2)nn1 [Compound I-719] as the compound, how does the IC50 read?
A: 1 to 3 µM

Q: With C(#CC1CC1)c1ccc(-c2nnnn2CC2CCCCO2)cc1 (stereo not drawn) [Compound I-346] as the compound, how does the IC50 read?
A: > 3 µM

Q: With CC(=O)N(c1cn(CC2OCC(C)(C)CO2)nn1)c1cc(C#CC2CC2)ccc1C [Compound I-792, N-(5-(cyclopropylethynyl)-2-methylphenyl)-N-(1-((5,5-dimethyl-1,3-dioxan-2-yl)methyl)-1H-1,2,3-triazol-4-yl)acetamide] as the compound, how does the IC50 read?
A: 0.3 to 1 µM

Q: How did the IC50 turn out when Cc1ccc(C#CC2CC2)cc1C(CC(F)(F)F)c1cn(CC2OCC(C)(C)CO2)nn1 (stereo not drawn) [Compound I-681] was run?
A: 0.3 to 1 µM

Q: CC1(C)COC(Cn2cc(-c3ccc(C#CCN4CC(C)(C)C4)cc3OC3CC3)nn2)OC1 [Compound I-788] was tested. Which IC50 did it give?
A: ≤ 0.3 µM

Q: With CCc1cc(C#CCN2CC(C)(CO)C2)cnc1-c1cn(CC2OCC(C)(C)CO2)nn1 [Compound I-789] as the compound, how does the IC50 read?
A: 0.3 to 1 µM

Q: Which IC50 does the source give for CC1(C)COC(Cn2cc(-c3ncc(C#CC4CC4)cc3CC(F)(F)F)nn2)OC1 [Compound I-750] here?
A: ≤ 0.3 µM

Q: With Cc1cc(C#CC2CC(F)(F)C2)ccc1-c1cn(CC2OCC(C)(C)CO2)nn1 [Compound I-662] as the compound, how does the IC50 read?
A: > 3 µM

Reference: patent US12617777B2, “GPR84 antagonists and uses thereof” (Liminal BioSciences Limited, priority 2021, dated 2026)
